Data reported in US20250057951A1, “DISCERNIBLE CELL SURFACE PROTEIN VARIANTS OF CD117 FOR USE IN CELL THERAPY” (UNIVERSITÄT BASEL, priority 2021, published 2025).
“Also recorded” adds a separate entry of the source.

Legend:
CD117 = assay: Gene editing of CD117 in TF-1 cells, loss of SR-1 binding by FACS; assay type: cell-based, human; settings: FACS 7 days after electroporation with Cas9, crRNA/tracrRNA or sgRNA and HDR template
Method: Gene editing of CD117 was performed in TF-1 cells using HDR. 12 different crRNAs were tested, six of them targeting amino acid residue E73 (Table 3), and six of them targeting amino acid residues 120-123 (Table 3).
Binding of antibody SR-1 to TF-1 cells was measured by FACS 7 days after electroporation with Cas9 protein, crRNA/tracrRNA or sgRNA and HDR template (Table 4).

SCF = biological target: T1, SCF (Homo sapiens, UniProt P21583); assay: Octet: binding of CD117 D1-2-3 variants to SCF; settings: CD117 D1-2-3 constructs; for KD increase of SCF binding compared to wild type CD117: steady state
T1 construct: purchased Acros Biosystems SCF-H82E1
Method: SCF binding is one function of CD117. SCF binding is important for the transmission of functional signals by CD117. Binding of the elected variants to SCF was measured on an Octet system RED96e or R8 at 25° C. with shaking at 1000 rpm using 1× Kinetic Buffer (Sartorius, PN: 18-1105). […] Domain 1, 2, 3 comprise the binding site for SCF. Domains 4 and 5 were used as a negative, non-binding control.
CD117 D1-2-3 wt and variants thereof are titrated with different concentrations from 1000 to 5 nM. Association was monitored for 300 s and dissociation for 600 s. Binding to human CD117 domain 4 and 5 (CD117 D4-5) was performed under the same conditions as non-binding control. Reference subtraction was performed against buffer only wells. Biosensors were not regenerated and a new set of SA biosensors was used for each analyte. Data were analyzed using the Octet Data Analysis software HT 12.0. Steady state data analysis was performed due to the fast on/off nature of the interaction.

antibody Refmab #1 = assay: Octet screen: binding of CD117 D1-2-3 variants to captured Refmab #1; settings: nm shift at end of association, top analyte concentration (500 nM)
Method: (§1) A more sophisticated analysis of binding to the elected variants was performed with antibody Refmab #1. Binding of Refmab #1 to wt and variants (analyte) was measured in an Octet system RED96e or R8 at 25° C. with shaking at 1,000 rpm using 1× kinetic buffer (Sartorius, PN: 18-1105). First, the elected variants were screened for their ability to bind Refmab #1 using three different concentrations of analytes. Antibody Refmab #1 was captured by Anti-Human Fc capture biosensor (AHC) (Sartorius, PN: 18-5060) for 300 s at 0.5 to 1 μg/mL. As an analyte, human CD117 wt and variants, containing only domains 1, 2 and 3 (CD117 D1-2-3), was titrated at 500 nM, 50 nM and 5 nM. Association and dissociation of the analyte to Refmab #1 was monitored for 300 s and 900 s, respectively. Reference subtraction was performed against buffer only wells. AHC tips were regenerated using 10 mM Gly-HCl pH 1.7. Data were analyzed using the Octet Data Analysis software HT 12.0. Data were fitted (when possible) to a 1:1 binding model. Kinetic rates ka and […] globally fitted. Binding level of the elected variants were compared to wild type and are shown as percent in FIG. 7. For this qualitative analysis, the binding level of the top analyte concentration at end of the association step was used.

Refmab #3 = assay: Octet: binding of CD117 variants to Refmab #3; settings: qualitative Octet analysis
Method: as §1
A similar experiment to that in Example 7 was performed, but utilizing Refmab's #2 and #3.

Biotinylated Avitag-hSCF = biological target: T2, Biotinylated Avitag-hSCF (human, UniProt P21583 26-190, limits assumed, biotinylated Avitag); assay: BLI (Octet), steady state: biotinylated SCF on streptavidin biosensor, CD117 D1-2-3 variant as analyte; KD relative to WT
T2 construct: Bought reagent; also called hSCF (Acros Biosystems SCF-H82E1)
T2 sequence (P21583 26-190 limits assumed): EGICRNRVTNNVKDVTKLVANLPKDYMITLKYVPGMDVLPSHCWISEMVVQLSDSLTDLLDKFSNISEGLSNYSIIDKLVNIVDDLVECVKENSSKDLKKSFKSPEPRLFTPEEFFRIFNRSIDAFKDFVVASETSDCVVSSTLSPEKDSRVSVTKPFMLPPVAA
Method: Association was monitored for 300 s and dissociation for 600 s. […] Reference subtraction was performed against buffer only wells. Biosensors were not regenerated and a new set of SA biosensors was used for each analyte. Data were analyzed using the Octet Data Analysis software HT 12.0. Steady state data analysis was performed due to the fast on/off nature of the interaction.

Refmab #3, sequence (as listed by the source): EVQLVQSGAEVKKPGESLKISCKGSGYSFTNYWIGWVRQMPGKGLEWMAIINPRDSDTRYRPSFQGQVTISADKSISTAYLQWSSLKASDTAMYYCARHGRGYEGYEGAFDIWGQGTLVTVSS
Refmab #3, sequence (as listed by the source): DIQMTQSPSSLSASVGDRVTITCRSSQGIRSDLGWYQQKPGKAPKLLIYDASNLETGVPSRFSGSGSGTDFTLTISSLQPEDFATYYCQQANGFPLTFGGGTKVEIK
T1 sequence (P21583 26-273): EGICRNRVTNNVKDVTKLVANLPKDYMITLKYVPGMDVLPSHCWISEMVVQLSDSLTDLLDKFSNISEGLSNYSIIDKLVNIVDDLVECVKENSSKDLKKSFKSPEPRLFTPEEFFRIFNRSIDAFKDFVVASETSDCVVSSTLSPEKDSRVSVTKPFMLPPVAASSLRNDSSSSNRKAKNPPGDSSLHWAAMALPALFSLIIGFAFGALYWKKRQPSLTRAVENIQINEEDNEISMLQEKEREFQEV
antibody Refmab #1, sequence (as listed by the source): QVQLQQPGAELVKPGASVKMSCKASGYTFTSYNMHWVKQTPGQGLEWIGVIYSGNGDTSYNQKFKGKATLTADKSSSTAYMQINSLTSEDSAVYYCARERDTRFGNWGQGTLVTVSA
antibody Refmab #1, sequence (as listed by the source): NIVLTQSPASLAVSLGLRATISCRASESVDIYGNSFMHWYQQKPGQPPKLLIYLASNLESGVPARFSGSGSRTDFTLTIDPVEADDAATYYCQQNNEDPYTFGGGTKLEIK

| Molecule | KnockOut Efficiency (loss of binding of SR-1 compared to wild type cells) (CD117) | other results |
| --- | --- | --- |
| KIT_120_123_3: crRNA TTGTTGACCGCTCCTTGTAT, SEQ ID NO: 11, targets residues 120-123 of CD117 (chemistry not given here) | 71.2% | – |
| KIT_E73_6: crRNA TAAGCAGAATGAATGGATCA, SEQ ID NO: 8, targets E73 of CD117 (chemistry not given here) | 60.5% | – |
| KIT_E73_1: crRNA CTGATCCGGGCTTTGTCAAA, SEQ ID NO: 3, targets E73 of CD117 (chemistry not given here) | 10.8% | – |
| KIT_120_123_5: crRNA CATACAAGGAGCGGTCAACA, SEQ ID NO: 13, targets residues 120-123 of CD117 (chemistry not given here) | 53.8% | – |
| KIT_120_123_4: crRNA CTTGTTGACCGCTCCTTGTA, SEQ ID NO: 12, targets residues 120-123 of CD117 (chemistry not given here) | 60.0% | – |
| KIT_E73_5: crRNA ATGAGAATAAGCAGAATGAA, SEQ ID NO: 7, targets E73 of CD117 (chemistry not given here) | 68.5% | – |
| KIT_120_123_2: crRNA CTTCTTTCCCATACAAGGAG, SEQ ID NO: 10, targets residues 120-123 of CD117 (chemistry not given here) | 63.1% | – |
| KIT_120_123_6: crRNA GCGGTCAACAAGGAAAAGCT, SEQ ID NO: 14, targets residues 120-123 of CD117 (chemistry not given here) | 60.6% | – |
| KIT_E73_4: crRNA TATTCTCATTCGTTTCATCC, SEQ ID NO: 6, targets E73 of CD117 (chemistry not given here) | 60.1% | – |
| KIT_E73_3: crRNA CAAATGGACTTTTGAGATCC, SEQ ID NO: 5, targets E73 of CD117 (chemistry not given here) | 37.2% | – |
| KIT_E73_2: crRNA AAAGTCCATTTGACAAAGCC, SEQ ID NO: 4, targets E73 of CD117 (chemistry not given here) | 25.7% | – |
| KIT_120_123_1: crRNA GTTGTCTTCTTTCCCATACA, SEQ ID NO: 9, targets residues 120-123 of CD117 (chemistry not given here) | 64.1% | – |
| S123V: variant of human CD117 with substitution S123V (protein) QPSVSPGEPSPPSIHPGKSDLIVRVGDEIRLLCTDPGFVKWTFEILDETNENKQNEWITEKAEATNTGKYTCTNKHGLSNSIYVFVRDPAKLFLVDRVLYGKEDNDTLVRCPLTDPEVTNYSLKGCQGKPLPKDLRFIPDPKAGIMIKSVKRAYHRLCLHCSVDQEGKSVLSEKFILKVRPAFKAVPVVSVSKASYLLREGEEFTVTCTIKDVSSSVYSTWKRENSQTKLQEKYNSWHHGDFNYERQATLTISSARVNDSGVFMCYANNTFGSANVTTTLEVVDKG | – | binding to SCF (SCF): binding to SCF, albeit to a slightly lower degree; KD increase of SCF binding compared to wild type CD117 (SCF): less than three-fold; also recorded: less than four-fold; binding to Refmab #1 compared to wild type (antibody Refmab #1): strong decrease in binding |
| S261Q: variant of human CD117 with substitution S261Q (protein) QPSVSPGEPSPPSIHPGKSDLIVRVGDEIRLLCTDPGFVKWTFEILDETNENKQNEWITEKAEATNTGKYTCTNKHGLSNSIYVFVRDPAKLFLVDRSLYGKEDNDTLVRCPLTDPEVTNYSLKGCQGKPLPKDLRFIPDPKAGIMIKSVKRAYHRLCLHCSVDQEGKSVLSEKFILKVRPAFKAVPVVSVSKASYLLREGEEFTVTCTIKDVSSSVYSTWKRENSQTKLQEKYNQWHHGDFNYERQATLTISSARVNDSGVFMCYANNTFGSANVTTTLEVVDKG | – | binding to Refmab #3 compared to wild type CD117 (Refmab #3): complete loss of binding |
| Y259A: variant of human CD117 with substitution Y259A (protein) QPSVSPGEPSPPSIHPGKSDLIVRVGDEIRLLCTDPGFVKWTFEILDETNENKQNEWITEKAEATNTGKYTCTNKHGLSNSIYVFVRDPAKLFLVDRSLYGKEDNDTLVRCPLTDPEVTNYSLKGCQGKPLPKDLRFIPDPKAGIMIKSVKRAYHRLCLHCSVDQEGKSVLSEKFILKVRPAFKAVPVVSVSKASYLLREGEEFTVTCTIKDVSSSVYSTWKRENSQTKLQEKANSWHHGDFNYERQATLTISSARVNDSGVFMCYANNTFGSANVTTTLEVVDKG | – | binding to Refmab #3 compared to wild type CD117 (Refmab #3): strong decrease in binding |
| S261E: variant of human CD117 with substitution S261E (protein) QPSVSPGEPSPPSIHPGKSDLIVRVGDEIRLLCTDPGFVKWTFEILDETNENKQNEWITEKAEATNTGKYTCTNKHGLSNSIYVFVRDPAKLFLVDRSLYGKEDNDTLVRCPLTDPEVTNYSLKGCQGKPLPKDLRFIPDPKAGIMIKSVKRAYHRLCLHCSVDQEGKSVLSEKFILKVRPAFKAVPVVSVSKASYLLREGEEFTVTCTIKDVSSSVYSTWKRENSQTKLQEKYNEWHHGDFNYERQATLTISSARVNDSGVFMCYANNTFGSANVTTTLEVVDKG | – | binding to Refmab #3 compared to wild type CD117 (Refmab #3): complete loss of binding |
| Y259E: variant of human CD117 with substitution Y259E (protein) QPSVSPGEPSPPSIHPGKSDLIVRVGDEIRLLCTDPGFVKWTFEILDETNENKQNEWITEKAEATNTGKYTCTNKHGLSNSIYVFVRDPAKLFLVDRSLYGKEDNDTLVRCPLTDPEVTNYSLKGCQGKPLPKDLRFIPDPKAGIMIKSVKRAYHRLCLHCSVDQEGKSVLSEKFILKVRPAFKAVPVVSVSKASYLLREGEEFTVTCTIKDVSSSVYSTWKRENSQTKLQEKENSWHHGDFNYERQATLTISSARVNDSGVFMCYANNTFGSANVTTTLEVVDKG | – | binding to SCF (SCF): binding to SCF, albeit to a slightly lower degree; KD increase of SCF binding compared to wild type CD117 (SCF): less than three-fold; also recorded: less than four-fold |
| K127L: variant of human CD117 with substitution K127L (protein) QPSVSPGEPSPPSIHPGKSDLIVRVGDEIRLLCTDPGFVKWTFEILDETNENKQNEWITEKAEATNTGKYTCTNKHGLSNSIYVFVRDPAKLFLVDRSLYGLEDNDTLVRCPLTDPEVTNYSLKGCQGKPLPKDLRFIPDPKAGIMIKSVKRAYHRLCLHCSVDQEGKSVLSEKFILKVRPAFKAVPVVSVSKASYLLREGEEFTVTCTIKDVSSSVYSTWKRENSQTKLQEKYNSWHHGDFNYERQATLTISSARVNDSGVFMCYANNTFGSANVTTTLEVVDKG | – | binding to SCF (SCF): binding to SCF, albeit to a slightly lower degree |
| Y259G (receptor, not in the list MOLECULES; also called human CD117 D1-2-3 variant Y259G) extracellular domains 1, 2 and 3: QPSVSPGEPSPPSIHPGKSDLIVRVGDEIRLLCTDPGFVKWTFEILDETNENKQNEWITEKAEATNTGKYTCTNKHGLSNSIYVFVRDPAKLFLVDRSLYGKEDNDTLVRCPLTDPEVTNYSLKGCQGKPLPKDLRFIPDPKAGIMIKSVKRAYHRLCLHCSVDQEGKSVLSEKFILKVRPAFKAVPVVSVSKASYLLREGEEFTVTCTIKDVSSSVYSTWKRENSQTKLQEKGNSWHHGDFNYERQATLTISSARVNDSGVFMCYANNTFGSANVTTTLEVVD | – | binding result (Biotinylated Avitag-hSCF): binds; binding to Refmab #3 compared to wild type CD117 (Refmab #3): strong decrease in binding |
